Measured values from PubChem BioAssay (NCI).
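The compound was tested at five concentrations on cells cultured in 96-well plates, with a 48-hour exposure period. GI50 = concentration required for 50% inhibition of growth. TGI: concentration producing complete growth inhibition.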

Assays:
Assay in all cases: NCI tumour cell line growth inhibition, 48 h
[1] = system: ACHN renal
[2] = system: HCC-2998 colon
[3] = system: HOP-62 NSCLC
[4] = system: IGROV1 ovarian
[5] = system: KM12 colon
[6] = system: LOX IMVI melanoma
[7] = system: M14 melanoma
[8] = system: PC-3 prostate
[9] = system: RPMI-8226 leukemia
[10] = system: HS 578T breast

| Structure (SMILES) | TGI [1] [µM] | TGI [2] [µM] | TGI [3] [µM] | TGI [4] [µM] | TGI [5] [µM] | TGI [6] [µM] | TGI [7] [µM] | TGI [8] [µM] | TGI [9] [µM] | GI50 [1] [µM] | GI50 [2] [µM] | GI50 [3] [µM] | GI50 [4] [µM] | GI50 [5] [µM] | GI50 [6] [µM] | GI50 [7] [µM] | GI50 [9] [µM] | GI50 [10] [µM] | TGI [10] [µM] | GI50 [8] [µM] |
| --- | --- | --- | --- | --- | --- | --- | --- | --- | --- | --- | --- | --- | --- | --- | --- | --- | --- | --- | --- | --- |
| CC1=CC(=O)c2c(O)cccc2C1=O | 3.01 | 4.12 | 17.6 | 3.33 | 19.5 | 3.32 | 3.3 | 4.75 | 1.83 |  |  |  |  |  |  |  |  |  |  |  |
| CS(=O)(=O)CC1=Nc2nnc(CCCCCCCc3nnc4n3C(=O)C(CS(C)(=O)=O)=N4)n2C1=O | > 100 | > 100 | > 100 | > 100 | > 100 | > 100 | > 100 |  | > 100 |  |  |  |  |  |  |  |  |  |  |  |
| O=C(CCn1[nH]c(=O)c(Cl)c(Cl)c1=O)NOCCCc1ccccc1 | > 100 | > 100 | > 100 | > 100 | > 100 | > 100 | > 100 |  | > 100 |  |  |  |  |  |  |  |  |  |  |  |
| CC(=O)[O][Pb]([O]C(C)=O)([c]1ccccc1)[c]1ccccc1 | > 100 | > 100 | 52 | > 100 | > 100 | 2.67 | > 100 |  | > 100 | > 100 | 44.9 | 25.2 | 5.98 | 12.6 | 1.19 | > 48 | 4.12 |  |  |  |
| CN(C)CCCNC(=O)c1cc(NC(=O)CCNS(=O)(=O)c2ccc3c(c2)C(=O)c2ccccc2C3=O)cn1C |  | > 100 | > 100 | > 100 | > 100 |  | > 100 | > 100 | > 100 |  | > 100 | > 100 | > 100 | > 100 |  | > 100 | > 100 | > 100 | > 100 | > 100 |
| O=C1C(Cl)=C(N/N=c2/[nH][nH]/c(=N/NC3=C(Cl)C(=O)c4ccccc4C3=O)c3ccccc23)C(=O)c2ccccc21 | 28.2 |  | 23.2 | 48.5 | 20.7 | 29.9 | 34.8 | 28.7 | 44.1 | 12.7 |  | 10.2 | 17.7 | 5.16 | 15.3 | 16.9 | 10.1 | 13.5 | 66.3 | 8.64 |
| COC12C=CC(CC1)c1c(O)ccc(O)c12 (stereo not drawn) | > 61.4 | > 100 | > 100 | > 100 | > 100 |  | > 100 |  | > 100 |  |  |  |  |  |  |  |  |  |  |  |
| O=C(O)CS(=O)(=O)C(c1ccccc1)c1ccccc1 | > 100 |  | > 100 | > 100 | > 100 | > 100 | > 100 | > 100 | > 100 |  |  |  |  |  |  |  |  |  | > 100 |  |
| Nc1cc(=O)[nH]c(SC2=NC(N)CC(O)C2)n1 (stereo not drawn) | > 100 | > 100 | > 100 | > 100 | > 100 | > 100 | > 100 |  | > 100 |  |  |  |  |  |  |  |  |  |  |  |
| CC12CCC(=O)C=C1CCC1C2CCC2(C)C(C(=O)Cn3cnc4c(=S)nc[nH]c43)CCC12 (stereo not drawn) | > 100 |  | 47.1 | > 100 | > 100 | > 100 | > 100 | > 100 | > 100 |  |  |  |  |  |  |  |  |  | > 100 |  |
| COc1cccc(OC(=O)c2ccccc2Nc2ccnc(C(F)(F)F)c2)c1 | 24.7 |  | 6.73 | > 100 |  | 10.4 | 4.04 | > 100 | 3.86 | 3.4 |  | 2.84 | 23.6 |  | 1.07 | 1.36 | 1.01 | 4.85 | > 100 | 3.25 |
| CC1=C(C(=O)OCc2ccccc2)C(c2ccc3c(c2)OCO3)n2c(nc3ccccc32)N1 (stereo not drawn) | > 100 | > 100 | > 100 | > 100 | > 100 | > 100 | > 100 | > 100 |  | 0.63 | > 33.2 | 8.01 | 0.644 | 0.334 | 0.566 | 0.418 |  | 0.299 | > 48.8 | 0.458 |
| COC(=O)[C@@H]1CSC(=S)N1C(=O)C[C@H]1CC=CC[C@H]1CC(=O)Sc1ccccc1 | 32.1 | 33.4 | 38 | 39.7 | 34.1 | 33.1 | 32.4 |  | 61.7 |  |  |  |  |  |  |  |  |  |  |  |
| Cn1c(=O)c2[nH]c(/N=N/N3CCN(CCO)CC3)nc2n(C)c1=O | > 100 |  | > 100 | > 100 | > 100 | > 100 | > 100 | > 100 | > 100 |  |  |  |  |  |  |  |  |  | > 100 |  |
| C=C1C(=O)OC2CC3(C)C=CC(=O)C(=C)C3CC12 (stereo not drawn) | 3.35 | 6.55 | 19.2 | 5.04 | 5.57 | 1.86 | 2.86 |  | 3.22 |  |  |  |  |  |  |  |  |  |  |  |
| C=C1C(=O)O[C@H]2C[C@@H](C)[C@@H]3CC(=O)OC[C@@]3(C)CC12 (stereo partly drawn) | 60 | 98.5 | > 100 | > 100 | 62 | 90.5 | 31.6 |  | 75.2 |  |  |  |  |  |  |  |  |  |  |  |
| Cc1ccc2c(c1)C1(C)OC(CC(N)C1O)O2 (stereo not drawn) | > 100 |  | > 100 | > 100 | > 100 | > 100 | > 100 |  | > 100 |  |  |  |  |  |  |  |  |  |  |  |
| CN1CCc2c1nc(-c1ccccc1)c1c2N(C)CC1 | > 100 | > 100 | > 100 | > 100 | > 100 | > 100 | > 100 |  | > 100 |  |  |  |  |  |  |  |  |  |  |  |
| O=S(=O)(c1ccc(NC(=S)NCc2cccnc2)cc1)N1CCCCC1 | > 100 | > 100 | > 100 | > 100 |  | > 100 | > 100 | > 100 | > 100 | 29.3 | > 100 | > 100 | 23.3 |  | 6.93 | 3.9 | 2.17 | 8.65 | > 100 | 1.5 |
